{"source": "patent US20250065017A1", "about": "“Fractionating Extracellular Matrix to Modulate Bioactivity and the Host Response” (University of Pittsburgh - Of the Commonwealth System of …, priority 2014, published 2025)", "key": {"[1]": {"tested_on": "Sprague Dawley rats", "assay": "Rat skeletal muscle injury model: collagen deposition and myogenesis", "type": "in vivo", "conditions": "UBM implant", "protocol": "An established rodent skeletal muscle injury model was used to evaluate the effect of the COX1/2 inhibitor, Aspirin, on the ECM scaffold mediated constructive remodeling response. Briefly, three days prior to the surgical procedure, animals were randomly assigned to either the Aspirin treated (3 mg/mL Aspirin in drinking water) or control (vehicle) group. Bilateral 1.5 cm×1.5 cm partial thickness defects were created in the abdominal musculature. A size-matched pre-cast UBM hydrogel and an overlying 2×2 cm single layer sheet of UBM was then placed in the muscle defect area. The remodeling response was evaluated following 3, 7, 14, and 35 days by quantitative histomorphologic metrics (Wolf M T, Carruthers […], Crapo P M, Huber A, Burnsed O A, Londono R, Johnson […] and others. Polypropylene surgical mesh coated with extracellular matrix mitigates the host foreign body response. J Biomed Mater Res A 2013 and Wolf […], Brennan-Pierce E P, Johnson S A, Carruthers […] hydrogel derived from decellularized dermal extracellular matrix. Biomaterials 2012;33(29):7028-38), including characterization of macrophage phenotype and neo tissue deposition. Thirty-two female Sprague Dawley rats (350-400 g at implantation) were purchased from Harlan Laboratories. […] Salicylates in whole blood were determined using the Salicylates Detection Kit from Neogen according to the manufacturer's instructions. […] Fast and Slow Myosin Heavy Chain: Myosin heavy chain positive cells in the defect area were determined by immunolabeling for fast and slow myosin heavy chain as previously described (Turner N J, Yates A J, Jr., Weber […], Stolz D B, Gilbert […]. Xenogeneic extracellular matrix as an inductive scaffold for regeneration of a functioning musculotendinous junction. Tissue Eng Part A 2010;16(11):3309-17; Valentin J E, Turner N J, Gilbert […]. Functional skeletal muscle formation with a biologic scaffold. Biomaterials 2010;31(29):7475-84; and Wolf […]. Biologic scaffold composed of skeletal muscle extracellular matrix. […]"}, "[2]": {"tested_on": "primary rat bone marrow derived macrophages", "assay": "PGE2 secretion in primary BMDM", "type": "cell-based", "conditions": "UBM hydrogel 0.5 mg/mL 48 hours; inhibitor pre-treatment 1 hour", "protocol": "Rat bone marrow mononuclear cells were matured to macrophages as previously described ([…], Forster O. Differentiation of rat bone marrow cells into macrophages under the influence of mouse L929 cell supernatant. J Leukoc Biol 1987;41(1):83-91). […] The cell pellet was resuspended in red blood cell (RBC) lysis buffer (155 mM NH4Cl, 10 mM KHCO3, 0.9% EDTA in distilled water) and incubated for 15 minutes on ice. Cell debris was removed by centrifugation and the cell pellet was resuspended in macrophage maturation media (DMEM high glucose, 10% heat inactivated FBS, 20% L929 fibroblast conditioned media, 0.5 mM MEM non-essential amino acids, 2 mM L-glutamine, 10 mM Hepes pH 7.4, 1% penicillin/streptomycin, 0.12% 50 mM 2-mercaptoethanol). Cells were seeded at a density of 1 million/mL in 6 well plates and incubated at 37° C./5% CO2. Media was changed every 2-3 days for 7 days. Matured bone marrow derived macrophages (BMDMs) were treated with 1 mL of StemPro® Accutase® (Invitrogen), incubated at 37° C. for 10 minutes, and detached with gentle pipetting. The cell suspension was collected and centrifuged for 5 mins at 1400 rpm. […] Secreted factor concentrations in the culture supernatants were determined using commercially available ELISA kits (PGE2, PGF2α, ENZO Life Sciences) and IL-1RA (R&D Systems)) according to the manufacturer's instructions."}}}
{"smiles": "CC(=O)Oc1ccccc1C(=O)O", "note": "[Aspirin]", "values": [{"measurement": "reduction in collagen deposition", "setting": "[1]; 35 day time point, 3 mg/mL Aspirin in drinking water", "value": 24, "unit": "%"}, {"measurement": "reduction in myogenesis (myogenic index) compared to non-treated controls", "setting": "[1]; 35 days post implantation", "value": 4, "unit": "fold"}, {"measurement": "in vivo reduction in myogenesis", "setting": "[1]", "value": 79, "unit": "%"}, {"measurement": "PGE2 production", "setting": "[2]", "value": "reduced PGE2 production to baseline levels"}]}
